Reference: US12048730B2, “Pharmaceutical composition for preventing or treating cancer, containing oligopeptide as active ingredient” (L-BASE CO., LTD., priority 2018, dated 2024)
Entries after “also recorded” stand apart in the source; their conditions may differ.

Legend:
Type in all cases: cell-based
[1] = system: breast cancer cell line (MDA-MB-231); experiment: MTS assay, cancer cell proliferation inhibition, breast cancer cell line; conditions: MDA-MB-231, 500 μM oligopeptide, 72 hours, OD 490 nm, vs untreated control (FIG. 2)
Protocol: (§1) To measure the cancer cell proliferation inhibitory effect of the oligopeptides synthesized in Example 1, an MTS (3-(4,5-dimethylthiazol-2-y)-5-(3-carboxymethoxyphenyl)-2-(4-sulfophenyl)-2H-tetrazolium, inner salt) assay for cancer cells was performed. Specifically, each of a lung cancer cell line (H1975), a breast cancer cell line (MDA-MB-231) and a blood cancer cell line (Daudi), which were cultured in 96-well microplates, was treated with 500 μM of the oligopeptides synthesized in Example 1, and incubated in a 37° C. incubator for 72 hours. Each cell culture was treated with an MTS reagent and incubated in a 37° C. incubator for 30 minutes or more, and absorbance (OD) was measured at 490 nm.

[2] = system: blood cancer cell line (Daudi); experiment: MTS assay, cancer cell proliferation inhibition, blood cancer cell line; conditions: 500 μM oligopeptide, 72 hours, OD 490 nm, vs untreated control (FIG. 3)
Protocol: as §1

[3] = system: lung cancer cell line (H1975); experiment: MTS assay, cancer cell proliferation inhibition, lung cancer cell line; conditions: H1975, 500 μM oligopeptide, 72 hours, OD 490 nm, vs untreated control (FIG. 1)
Protocol: as §1

AECSKYSYKG (pep #5)
cancer cell proliferation inhibitory effect [1]: better cancer cell proliferation inhibitory effect than an untreated control; also recorded: excellent cancer cell proliferation inhibitory effects
cancer cell proliferation inhibitory activity [2]: better cancer cell proliferation inhibitory activity than an untreated control; also recorded: excellent cancer cell proliferation inhibitory activity

ATWPDTVRQL (pep #1)
cancer cell proliferation inhibitory activity [2]: better cancer cell proliferation inhibitory activity than an untreated control

CSKYSYKGLK (pep #4)
cancer cell proliferation inhibitory effect [1]: better cancer cell proliferation inhibitory effect than an untreated control
cancer cell proliferation inhibitory activity [2]: better cancer cell proliferation inhibitory activity than an untreated control

GMLVLTPTRE (pep #8)
cancer cell proliferation inhibitory effect [1]: better cancer cell proliferation inhibitory effect than an untreated control
cancer cell proliferation inhibitory activity [2]: better cancer cell proliferation inhibitory activity than an untreated control; also recorded: excellent cancer cell proliferation inhibitory activity
cancer cell proliferation inhibitory activity [3]: excellent cancer cell proliferation inhibitory effects

QTVMTSATWP (pep #6)
cancer cell proliferation inhibitory activity [2]: better cancer cell proliferation inhibitory activity than an untreated control
cancer cell proliferation inhibitory activity [3]: excellent cancer cell proliferation inhibitory effects

SICIYGGRNR (pep #7)
cancer cell proliferation inhibitory effect [1]: better cancer cell proliferation inhibitory effect than an untreated control; also recorded: excellent cancer cell proliferation inhibitory effects
cancer cell proliferation inhibitory activity [2]: better cancer cell proliferation inhibitory activity than an untreated control
cancer cell proliferation inhibitory activity [3]: excellent cancer cell proliferation inhibitory effects

SREQRNGPGM (pep #9)
cancer cell proliferation inhibitory activity [3]: excellent cancer cell proliferation inhibitory effects

TSATWPDTVR (pep #2)
cancer cell proliferation inhibitory effect [1]: better cancer cell proliferation inhibitory effect than an untreated control
cancer cell proliferation inhibitory activity [2]: better cancer cell proliferation inhibitory activity than an untreated control

WPDTVRQLAL (pep #3)
cancer cell proliferation inhibitory effect [1]: better cancer cell proliferation inhibitory effect than an untreated control; also recorded: excellent cancer cell proliferation inhibitory effects
cancer cell proliferation inhibitory activity [2]: better cancer cell proliferation inhibitory activity than an untreated control
